The text below walks through data of patent US12084472B2 (Ardelyx, Inc., priority 2015, dated 2024).

The assay concerns the target T1, human TGR5 (Homo sapiens, UniProt Q8TDU6).
T1 construct: expressed in transfected cells; host or cells: HEK293
T1 sequence (Q8TDU6 1-330): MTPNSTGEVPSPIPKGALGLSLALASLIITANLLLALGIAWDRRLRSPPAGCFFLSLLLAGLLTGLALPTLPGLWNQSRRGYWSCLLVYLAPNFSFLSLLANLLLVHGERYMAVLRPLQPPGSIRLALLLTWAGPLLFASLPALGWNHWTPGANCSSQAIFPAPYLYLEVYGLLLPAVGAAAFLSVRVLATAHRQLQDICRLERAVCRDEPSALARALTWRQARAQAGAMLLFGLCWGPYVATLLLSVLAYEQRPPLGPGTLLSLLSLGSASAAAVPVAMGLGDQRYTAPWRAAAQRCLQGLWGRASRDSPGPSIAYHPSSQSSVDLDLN
Briefly: Cell-based TGR5 assay (cAMP generation, HTRF). The settings on record: HEK293 cells stably transfected with human TGR5; cAMP by HTRF; 30 minutes at 37° C.; read-out: pEC50 Human TGR5 (converted). The method in brief:
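First, compounds in 3-fold serial dilution were placed in HBSS with 10 mM HEPES pH 7.4 and 0.5 mM IBMX. Next, human TGR5-expressing HEK293 cells were added and incubated 30 min at 37° C. Finally, cAMP was detected by HTRF and pEC50 derived by logistic fitting.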
For orientation: TR-FRET usually uses a lanthanide donor and a delayed reading to cut background.
For `CN1C[C@@H]2C[C@H]1CN2S(=O)(=O)c1ccc(Cl)c(COC2(c3cnccc3-c3ccccc3OC3CC3)CC2)c1` [Compound I-777, (1S,4S)-2-((4-chloro-3-((1-(4-(2-cyclopropoxyphenyl)pyridin-3-yl)cyclopropoxy)methyl)phenyl)sulfonyl)-5-methyl-2,5-diazabicyclo[2.2.1]heptane], the EC50 is 126 to 1000 nM.
Turning to `Cc1ccc(SCCCN(CCOCCO)C(=O)[C@@H](O)[C@@H](O)[C@H](O)[C@@H](O)CO)cc1COC1(c2cnccc2-c2ccccc2OC2CC2)CC1` [Compound I-538, (2S,3S,4R,5S)-N-(3-{[3-({1-[4-(2-cyclopropoxyphenyl)pyridin-3-yl]cyclopropoxy}methyl)-4-methylphenyl]sulfanyl}propyl)-2,3,4,5,6-pentahydroxy-N-[2-(2-hydroxyethoxy)ethyl]hexanamide], the EC50 was 1260 to 10000 nM.
Take `OC[C@@H](O)[C@@H](O)[C@H](O)[C@@H](O)CNCCCCc1cc(Cl)c(COC2(c3cnccc3-c3ccccc3OC3CC3)CC2)cc1Cl` [Compound I-66, (2R,3R,4R,5S)-6-(4-(2,5-dichloro-4-((1-(4-(2-cyclopropoxyphenyl)pyridin-3-yl)cyclopropoxy)methyl)phenyl)butylamino)hexane-1,2,3,4,5-pentaol]: the EC50 is 126 to 1000 nM.
Turning to `C[C@H](CCCCNC(=O)NC[C@H](O)[C@@H](O)[C@H](O)[C@H](O)CO)c1ccc(Cl)c(CNC2(c3cnccc3-c3ccccc3OC3CC3)CC2)c1` (single isomer, unassigned) [Compound I-256], the EC50 was < 100 nM.
On to `O=C(CCCSc1ccc(Cl)c(COC2(c3cnccc3-c3ccccc3OC3CC3)CC2)c1)N(CCCO)C[C@H](O)[C@@H](O)[C@H](O)[C@H](O)CO` [Compound I-661, 4-{[4-chloro-3-({1-[4-(2-cyclopropoxyphenyl)pyridin-3-yl]cyclopropoxy}methyl)phenyl]sulfanyl}-N-(3-hydroxypropyl)-N-[(2S,3R,4R,5R)-2,3,4,5,6-pentahydroxyhexyl]butanamide], for which the EC50 was < 100 nM.
With `NC(=O)CN(CCCCc1cc(Cl)c(COC2(c3cnccc3-c3ccccc3OC3CC3)CC2)cc1Cl)C(=O)[C@@H](O)[C@@H](O)[C@H](O)[C@@H](O)CO` [Compound I-82, (2S,3S,4R,5S)-N-(carbamoylmethyl)-N-{4-[2,5-dichloro-4-({1-[4-(2-cyclopropoxyphenyl)pyridin-3-yl]cyclopropoxy}methyl)phenyl]butyl}-2,3,4,5,6-pentahydroxyhexanamide], the EC50 was < 100 nM.
Take `O=C(C1CCOCC1)N(CCCCc1cc(Cl)c(COC2(c3cnccc3-c3ccccc3OC3CC3)CC2)cc1Cl)C[C@H](O)[C@@H](O)[C@H](O)[C@H](O)CO` [Compound I-67, N-(4-(2,5-dichloro-4-((1-(4-(2-cyclopropoxyphenyl)pyridin-3-yl)cyclopropoxy)methyl)phenyl)butyl)-N-((2S,3R,4R,5R)-2,3,4,5,6-pentahydroxyhexyl)tetrahydro-2H-pyran-4-carboxamide]: the EC50 was < 100 nM.
As for `O=C([C@@H](O)[C@@H](O)[C@H](O)[C@@H](O)CO)N(CCCCSc1ccc(Cl)c(CNC2(c3cnccc3-c3ccccc3OC3CC3)CC2)c1)CCN1CCS(=O)(=O)CC1` [Compound I-557, (2S,3S,4R,5S)-N-[4-({4-chloro-3-[({1-[4-(2-cyclopropoxyphenyl)pyridin-3-yl]cyclopropyl}amino)methyl]phenyl}sulfanyl)butyl]-N-[2-(1,1-dioxo-1λ^6,4-thiomorpholin-4-yl)ethyl]-2,3,4,5,6-pentahydroxyhexanamide], the EC50 was 126 to 1000 nM.
Turning to `CC(=O)NCCCCN(CCCSc1ccc(Cl)c(COC2(c3cnccc3-c3ccccc3OC3CC3)CC2)c1)C(=O)[C@@H](O)[C@@H](O)[C@H](O)[C@@H](O)CO` [Compound I-579, (2S,3S,4R,5S)-N-(3-{[4-chloro-3-({1-[4-(2-cyclopropoxyphenyl)pyridin-3-yl]cyclopropoxy}methyl)phenyl]sulfanyl}propyl)-N-(4-acetamidobutyl)-2,3,4,5,6-pentahydroxyhexanamide], the EC50 was < 100 nM.
With `Cc1ccc(S(=O)(=O)N(C)CCCCNC(=O)NC[C@H](O)[C@@H](O)[C@H](O)[C@H](O)CO)cc1CNC1(c2cnccc2-c2ccccc2OC2CC2)CC1` [Compound I-477, 1-(4-{N-methyl3-[({1-[4-(2-cyclopropoxyphenyl)pyridin-3-yl]cyclopropyl}amino)methyl]-4-methylbenzenesulfonamido}butyl)-3-[(2S,3R,4R,5R)-2,3,4,5,6-pentahydroxyhexyl]urea], the EC50 is < 100 nM.
Consider `O=C(CCCSc1ccc(Cl)c(COC2(c3cnccc3-c3ccccc3OC3CC3)CC2)c1)N(C[C@H](O)[C@@H](O)[C@H](O)[C@H](O)CO)C1CCOCC1` [Compound I-669, 4-{[4-chloro-3-({1-[4-(2-cyclopropoxyphenyl)pyridin-3-yl]cyclopropoxy}methyl)phenyl]sulfanyl}-N-(oxan-4-yl)-N-[(2S,3R,4R,5R)-2,3,4,5,6-pentahydroxyhexyl]butanamide], for which the EC50 was 126 to 1000 nM.
The figure for `NCCOCCNS(=O)(=O)c1ccc(Cl)c(COC2(c3cnccc3-c3ccccc3OC3CC3)CC2)c1` [Compound I-399, N-[2-(2-aminoethoxy)ethyl]-4-chloro-3-({1-[4-(2-cyclopropoxyphenyl)pyridin-3-yl]cyclopropoxy}methyl)benzene-1-sulfonamide] is 126 to 1000 nM; for `CCNC(=O)CCN(C[C@H](O)[C@@H](O)[C@H](O)[C@H](O)CO)C(=O)CCCC(C)c1ccc(Cl)c(CNC2(c3cnccc3-c3ccccc3OC3CC3)CC2)c1` (stereo partly drawn) [Compound I-344, 5-{4-chloro-3-[({1-[4-(2-cyclopropoxyphenyl)pyridin-3-yl]cyclopropyl}amino)methyl]phenyl}-N-[2-(ethylcarbamoyl)ethyl]-N-[(2S,3R,4R,5R)-2,3,4,5,6-pentahydroxyhexyl]hexanamide] it is 126 to 1000 nM.
With `O=C(/C=C/C1CN(S(=O)(=O)c2ccc(Cl)c(COC3(c4cnccc4-c4ccccc4OC4CC4)CC3)c2)C1)NC[C@H](O)[C@@H](O)[C@H](O)[C@H](O)CO` [Compound I-446, (2E)-3-{1-[4-chloro-3-({1-[4-(2-cyclopropoxyphenyl)pyridin-3-yl]cyclopropoxy}methyl)benzenesulfonyl]azetidin-3-yl}-N-[(2S,3R,4R,5R)-2,3,4,5,6-pentahydroxyhexyl]prop-2-enamide], the EC50 was < 100 nM.
Turning to `O=C(NC[C@H](O)[C@@H](O)[C@H](O)[C@H](O)CO)[C@H]1[C@@H]2CN(S(=O)(=O)c3ccc(Cl)c(COC4(c5cnccc5-c5ccccc5OC5CC5)CC4)c3)C[C@@H]21` [Compound I-435, (1R,5S,6S)-3-[4-chloro-3-({1-[4-(2-cyclopropoxyphenyl)pyridin-3-yl]cyclopropoxy}methyl)benzenesulfonyl]-N-[(2S,3R,4R,5R)-2,3,4,5,6-pentahydroxyhexyl]-3-azabicyclo[3.1.0]hexane-6-carboxamide], the EC50 was < 100 nM.
The figure for `O=C(NCCCCc1cc(Cl)c(COC2(c3cnccc3-c3ccccc3OC3CC3)CC2)cc1Cl)[C@@H](O)[C@@H](O)[C@H](O)[C@@H](O)CN1CCOCC1` (stereo in doubt) [Compound I-179, (2S,3S,4R,5S)-N-{4-[2,5-dichloro-4-({1-[4-(2-cyclopropoxyphenyl)pyridin-3-yl]cyclopropoxy}methyl)phenyl]butyl}-2,3,4,5-tetrahydroxy-6-(morpholin-4-yl)hexanamide] is < 100 nM.
`CCOC(=O)NCCN(CCCCSc1ccc(Cl)c(COC2(c3cnccc3-c3ccccc3OC3CC3)CC2)c1)C(=O)[C@@H](O)[C@@H](O)[C@H](O)[C@@H](O)CO` [Compound I-576, ethyl N-{2-[(2S,3S,4R,5S)-N-(4-{[4-chloro-3-({1-[4-(2-cyclopropoxyphenyl)pyridin-3-yl]cyclopropoxy}methyl)phenyl]sulfanyl}butyl)-2,3,4,5,6-pentahydroxyhexanamido]ethyl}carbamate]: the EC50 is < 100 nM.
The figure for `CC(CCCC(=O)N1CCN(C(=O)NC[C@H](O)[C@@H](O)[C@H](O)[C@H](O)CO)CC1)c1ccc(Cl)c(CNC2(c3cnccc3-c3ccccc3OC3CC3)CC2)c1` (stereo partly drawn) [Compound I-319, 4-(5-{4-chloro-3-[({1-[4-(2-cyclopropoxyphenyl)pyridin-3-yl]cyclopropyl}amino)methyl]phenyl}hexanoyl)-N-[(2S,3R,4R,5R)-2,3,4,5,6-pentahydroxyhexyl]piperazine-1-carboxamide] is < 100 nM; for `CC(CCCC(=O)N(CCCCCO)C[C@H](O)[C@@H](O)[C@H](O)[C@H](O)CO)c1ccc(Cl)c(CNC2(c3cnccc3-c3ccccc3OC3CC3)CC2)c1` (stereo partly drawn) [Compound I-261, 5-(4-chloro-3-(((1-(4-(2-cyclopropoxyphenyl)pyridin-3-yl)cyclopropyl)amino)methyl)phenyl)-N-(5-hydroxypentyl)-N-((2S,3R,4R,5R)-2,3,4,5,6-pentahydroxyhexyl) hexanamide] it is < 100 nM; for `CC(CCCCCNC(=O)NC[C@H](O)[C@@H](O)[C@H](O)[C@H](O)CO)c1ccc(Cl)c(CNC2(c3cnccc3-c3ccccc3OC3CC3)CC2)c1` (stereo partly drawn) [Compound I-268, 1-(6-{4-chloro-3-[({1-[4-(2-cyclopropoxyphenyl)pyridin-3-yl]cyclopropyl}amino)methyl]phenyl}heptyl)-3-[(2S,3R,4R,5R)-2,3,4,5,6-pentahydroxyhexyl]urea] it is < 100 nM.
